Broadly, the melting point is the temperature, or range, at which the solid turns liquid.

In turn, `NS(=O)(=O)c1cscc1C(=O)O` came in with a melting point of 222 to 224 °C.
Regarding `CCC(CO)Nc1cc(C)nc(Oc2c(C)cc(Cl)cc2C)c1C(=O)OC` (centres undefined), the melting point is 122 to 124 °C.
In turn, `CN1CNC(=S)N(c2ccc(C(F)(F)F)cc2)C1` came in with a melting point of 163 to 165 °C.
In the case of `Cn1cc(CO)c(=O)c2ccc(C(F)(F)F)cc21` it was 172 to 175 °C.
In the case of `Cc1ccc(-c2ccc3c(c2)C=C(C(=O)Nc2ccc(-c4cccnc4)cc2)CCO3)cc1` it was 214 to 216 °C; in that of `CCNS(=O)(=O)c1cc(C)c2cc(C(C)C)ccc(C)c1-2`, 96 to 98 °C.
Under `O=C(O)c1cn(C2CC2)c2c(F)c(N3CCC(=NO)C3)c(F)c(F)c2c1=O` stands 300 °C; under `Cc1cc2c(cc1C)C(c1ccccc1)(C(F)(F)C(F)(F)F)c1cc3c(cc1O2)Oc1cc(C)c(C)cc1C3(c1ccccc1)C(F)(F)C(F)(F)F` (centres undefined), 228 to 233 °C; under `Cc1ccc(C(=O)N(C)C2CCCCC2)cc1`, 70 to 71 °C.
For `Cc1ccc2c(Cl)cc(S(=O)(=O)F)c(O)c2n1`, the melting point was in the range of 196 to 198 °C.
In the case of `FC(F)(F)Oc1ccc(-c2ccc(OCc3ccccc3)cc2)cc1` it was 136 to 137 °C; in that of `CCC[C@H]1CC[C@H]([C@H]2CC[C@H](C3=CC(=O)CCC3)CC2)CC1`, 96 °C.
In the case of `CCCCCn1c(C)c(C(=O)c2ccc(Cl)c3ccccc23)c2cccc(OC)c21` it was 112 °C; in that of `O=C1c2c(Cl)cccc2S(=O)(=O)N1Cn1nnn(-c2ccccc2)c1=S`, 158 to 162 °C.
Under `COC(=O)c1cc(-c2ccc(F)c(C)c2)nn(CC=Cc2ccccc2)c1=O` stands 95.9 to 96.7 °C; under `CS(=O)(=O)c1cccc(C2=C(C3CCCC3)CCC2=NO)c1`, 164 to 165 °C; under `Cc1cc2c(nc(C)n2CCc2ccccc2)c(N)n1`, 185 to 187 °C.
As for `Cc1ccc2c(Sc3ccc(Cl)c(Cl)c3)c(C(=O)O)[nH]c2c1`, the melting point lay within 252 to 255 °C.
Under `CCOc1cc(NCCO)c([N+](=O)[O-])cc1O` stands 180 °C.
Under `CCCCC(CC)COc1cc(-c2ccccn2)nc(-c2ccccn2)c1` (centres undefined) stands 58.5 °C.
In the case of `COC(=O)C1=NNC(C)=C(C(=O)OC)C1c1ccccc1C(F)(F)F` (centres undefined) it was 205 °C; in that of `CC(C)[C@H](C[C@H](O)[C@H](C)NC(=O)OC(C)(C)C)C(=O)NCCCn1ccnc1`, 148 to 150 °C.
Regarding `OC1(c2ccc(Cl)cc2)CCN(CCCn2cnc3ccccc32)CC1`, the melting point came to 160 °C.
In the case of `Cc1ccc(Nc2ccc(Nc3ncnc4cc(-c5ccccc5)sc34)cc2)cc1` it was 221 to 222 °C; in that of `c1cc(-c2ccc(OCCCN3CCCCC3)cc2)ccc1CN1CCCCC1`, 90 °C; in that of `O=C(O)c1ccc2oc(-c3ccc(O)cc3)cc2c1`, over 300 °C.
Under `O=C(OC(=O)c1cn(-c2ccccc2)nc1-c1ccc([N+](=O)[O-])o1)c1cn(-c2ccccc2)nc1-c1ccc([N+](=O)[O-])o1` stands 262 to 264 °C.
Under `O=Cc1ccc(O)c(OCc2ccccc2)c1` stands 123 to 124 °C; under `CC(=O)c1ccc(NC(=O)C(F)(F)F)nc1`, 147 to 149 °C.
`COc1cc(OC)c(/C=C/S(=O)(=O)Cc2cnc(OC)c([N+](=O)[O-])c2)c(OC)c1` showed a melting point of 183 to 186 °C.
`COc1ccc(-c2nnc3c4ccccc4c(OC4CCNC4=O)nn23)cc1` (centres undefined) registered a melting point of 290 to 293 °C.
In the case of `COc1cccc2c(=O)c(CSC)cn(C)c12` it was 143 to 145 °C; in that of `CC1=C(C#N)S(=O)(=O)c2cc(Cl)ccc2N1`, 297 to 299 °C.
For the compound `CCOC(=O)c1c(C(=O)C(=O)OC)c2cc(Cl)ccc2n1C`, the melting point is 119 to 120 °C.
Under `O=C(Nc1cccc(-c2ccnc3c(C(=O)c4cccs4)cnn23)c1)OCc1cccnc1` stands over 200 °C; under `O=C1Nc2ccc(C(F)(F)F)cc2C1c1nc(Cl)nc2nn(C3CCCC3)cc12` (centres undefined), over 300 °C.
Under `CCOC(=O)C1=C(C=O)Nc2ccnc(OC(C)C)c2C1c1ccccc1` (centres undefined) stands 132 to 135 °C.
In the case of `CC1(C)C=C(C#Cc2ccccn2)CC(C)(C)C1` it was 55 to 56 °C; in that of `CCc1nnc2c(O)nc3cc(OC)ccc3n12`, over 250 °C.
In the case of `Cc1ccccc1-c1c(C(=O)N(C)C)ccc2ccccc12`, the melting point was in the range of 95 to 97 °C.
Under `COC1C=C(C)C(=O)CC(C)(C)C1OC(=O)c1ccccc1C(=O)O` (centres undefined) stands 158 °C; under `CCn1c(N)c(-c2ncc[nH]2)c(=O)c2ccc(-c3ccc(CCCC(=O)NCc4ccncc4)cc3)nc21`, 240 °C.
In the case of `CC(C)C(=O)Nc1nc(CN2CCN(C(c3ccccc3)c3ccccc3)CC2)cs1` it was 132 to 140 °C.
Under `CCOCc1nc2c(N)nc3cc(OCc4cccc(N)c4)ccc3c2n1CC(C)C` stands 228 to 230 °C; under `Cc1ccc(N(c2ccc(C)cc2)c2ccc(C=C3c4ccccc4C=Cc4ccccc43)cc2)cc1`, 168 to 169 °C; under `O=C1CC=C2c3ccc(Cl)cc3CCC2N1` (centres undefined), 241 to 243 °C.
In the case of `CNC(=O)N1N=C(c2ccc(N)cc2)c2cc(Br)ccc2CC1C` (centres undefined), the melting point is 121 to 124 °C.
In the case of `CCCCN1CCC(CNC(=O)c2ccc(N)n3cc(CC)nc23)CC1` it was 139 to 145 °C; in that of `CC(O)C1C(=O)NC1CC(=O)OCc1ccccc1` (mixture of isomers), 67.5 to 68.5 °C; in that of `CCC(=O)NCC(COS(C)(=O)=O)c1cccc2ccc(OC)cc12` (centres undefined), 118 to 120 °C.
Compound `CCc1noc(C)c1-c1[nH]c2ccccc2c1CCCN(C)C` gave a melting point of 131 to 133 °C.
With `Nc1noc2cc3c(cc12)C1(CO3)C(=O)N(Cc2ccccc2C(F)(F)F)c2ccccc21` (centres undefined), the melting point was in the range of 262 to 264 °C.
Under `CC(C)n1c(S)nc(-c2ccc(F)cc2)c1-c1ccc(F)cc1` stands 308 to 312 °C; under `O=C1NC2(CCCCC2)Sc2ccccc21`, 193 to 195 °C; under `CP(C)(=O)CNc1cc(Oc2ccc(C(F)(F)F)cn2)ccc1[N+](=O)[O-]`, 158 to 160 °C.
Under `Cc1cc(C)n2ncc(F)c2n1` stands 129 to 130 °C; under `CC(=O)S[C@@H]1C[C@@H](C(=O)N(CCc2ccccc2)CC(=O)O)N(S(=O)(=O)c2ccc3ccccc3c2)C1`, 190 to 193 °C; under `COc1ccc(C(C[N+](=O)[O-])SC(=S)N(C)C)cc1OC` (centres undefined), 108 to 110 °C.
Under `C=CCN1C(=O)C2CCc3c(OC)c(OC)cc(C)c3C2C1=O` (centres undefined) stands 90 to 91 °C; under `Nc1ccc(-c2noc(-c3cnn4c(C(F)(F)F)cc(-c5ccc(C(F)(F)F)c(Cl)c5)nc34)n2)cn1`, 234 °C.
Compound `O=c1[nH]c2cc(Cl)ccc2c(=O)cc1NCc1ccccc1` came in with a melting point of 309 to 314 °C.
Under `COCCNc1ccc(C(=O)c2c(C)n(CCN3CCOCC3)c3ccccc23)cc1` stands 121 to 123 °C; under `CN(C)S(=O)(=O)c1cc2[nH]c(=O)c(=O)[nH]c2cc1[N+](=O)[O-]`, 318 to 332 °C.
Under `COC(=O)C1CN2c3c(cc(F)c(OS(C)(=O)=O)c3CCN2C)C1=O` (centres undefined) stands 247 to 250 °C.
Under `N#Cc1ccc2oc3c(c(=O)c2c1)CCCC3` stands 198 to 200 °C; under `CC(C)(C)c1ccc2nc3c(c(O)c2c1)CCCC3`, 320 to 322 °C; under `Clc1nc2cccc3c2n1CCC3`, 78 °C.
In turn, `CCCCCn1ncc(C#N)c1N` gave a melting point of 143 to 144 °C.
Under `O=Cc1cc(-c2ccccc2F)n(S(=O)(=O)c2cccnc2)c1` stands 106 to 108 °C; under `O=C(Nc1ccccc1)OCC1(COC(=O)Nc2ccccc2)CSc2ccccc2C1=O`, 67 to 69 °C; under `N#CCOc1cccc2c1SCCC2`, 66 °C.
On to `CN(C(=O)c1cccc(C(F)(F)F)c1)c1ccccc1CCCCC(=O)O`, for which the melting point lay within 81 to 83 °C.
With `COc1ccc(SC)c2c1CC(N)(C#N)CC2` (centres undefined), the melting point lay within 128 to 130 °C.
Under `CCN(CC)CCNC(=O)c1cc(Cl)c(N)cc1OCCCCSC` stands 101 to 103 °C; under `Cc1cc2c(cc1C(F)(F)F)N(C(=O)Nc1ccc(OCc3ccccn3)nc1)CC2`, 219 to 220 °C.
In the case of `CCOC(=O)C1=C(C)NC(CSCO)=C(C(=O)OCC)C1c1cccc([N+](=O)[O-])c1` (centres undefined) it was 113 to 114 °C; in that of `O=C(NCc1cc(C(F)(F)F)cc(C(F)(F)F)c1)c1cnc(Cl)nc1Cl`, 144 to 145 °C; in that of `CC(=O)c1ccc(NS(=O)(=O)c2sc3ccc(F)cc3c2C)c(S(C)(=O)=O)c1`, 174 to 175 °C.
Under `O=C(O)Cc1cc(Cl)c2c(c1)CCC(c1ccccc1)N2` (centres undefined) stands 126 to 127 °C; under `CCOC(=O)C(C)(C)Oc1ccc(OCc2ccccc2)cc1C=O`, 65 °C; under `O=C1Nc2cccnc2C12COc1cc3c(cc12)OCCO3` (centres undefined), over 250 °C.
For the compound `N#CCCc1cc(N2C(=O)C3=C(CCCC3)C2=O)ccc1Cl`, the melting point lay within 87 to 97 °C.
In the case of `OCCCNc1cc(-c2ccnc(Nc3cccc(C(F)(F)F)c3)n2)ccn1` it was 158 to 163 °C; in that of `CCN1CC(=O)N(C)c2cc([N+](=O)[O-])c(OC)cc2C1`, 129 to 131 °C.
Under `CCOC(=O)C1=C(c2ccccc2)Nc2n[nH]cc2C1c1ccccc1Cl` (centres undefined) stands 214 °C; under `COC(=O)c1ccc(Cc2cccc3ccc(CC(C)C(=O)O)cc23)c(OC)c1` (centres undefined), 110 to 129 °C; under `COc1cc(N)c(Cl)cc1C(=O)NCC1CCN(CCCCCCC(=O)c2ccccc2)CC1`, 128 to 130 °C.
In the case of `Cc1cnc(C(=O)c2[nH]c3cc(Cl)ccc3c2CC(=O)O)c(C)c1` it was 199 to 200 °C; in that of `CCCCCC(=O)NC[C@H](O)CC(=O)NN`, 172 °C.
